Measured values reported in EP1031349A1, “Use of substituted 4-biarylbutyric and 5-biarylpentanoic acid derivatives for the treatment of cerebral diseases” (Bayer Aktiengesellschaft, priority 1999, dated 2000).
Where two headings read alike, the source gives them in different places.

What was measured:
[1] = biological target: T1, MMP-2 (Homo sapiens, UniProt P08253); assay: Automated MMP profiling assay (P218 quenched fluorescence), MMP-2; type: biochemical
T1 sequence (P08253 110-660): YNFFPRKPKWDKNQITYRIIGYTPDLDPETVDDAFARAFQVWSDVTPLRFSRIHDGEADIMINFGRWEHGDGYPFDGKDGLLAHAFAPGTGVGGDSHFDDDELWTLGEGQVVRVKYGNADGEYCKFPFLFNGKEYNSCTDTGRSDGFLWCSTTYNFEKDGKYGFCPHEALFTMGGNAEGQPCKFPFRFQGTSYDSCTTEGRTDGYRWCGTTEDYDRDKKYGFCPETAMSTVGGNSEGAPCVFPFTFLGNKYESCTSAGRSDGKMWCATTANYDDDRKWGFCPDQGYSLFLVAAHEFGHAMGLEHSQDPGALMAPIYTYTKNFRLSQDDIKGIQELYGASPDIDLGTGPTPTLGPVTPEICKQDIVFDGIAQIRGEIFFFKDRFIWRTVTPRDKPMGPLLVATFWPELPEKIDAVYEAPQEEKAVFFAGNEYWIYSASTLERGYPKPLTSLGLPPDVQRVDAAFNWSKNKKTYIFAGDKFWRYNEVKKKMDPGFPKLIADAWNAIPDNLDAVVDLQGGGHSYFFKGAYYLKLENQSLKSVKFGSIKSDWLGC

[2] = biological target: MMP-3 (Homo sapiens, UniProt P08254); assay: Automated MMP profiling assay (P218 quenched fluorescence), MMP-3; type: biochemical
MMP-3, sequence (P08254 100-274 limits assumed): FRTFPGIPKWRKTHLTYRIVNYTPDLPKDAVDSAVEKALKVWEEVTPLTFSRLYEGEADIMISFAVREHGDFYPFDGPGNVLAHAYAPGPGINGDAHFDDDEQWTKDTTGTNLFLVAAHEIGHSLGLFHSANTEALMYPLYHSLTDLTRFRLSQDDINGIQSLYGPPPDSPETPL
Experimental: Truncated Prostromelysin-257 is expressed in a soluble form in E.coli as described by Marcy et al., Biochemistry, 30, 6476-6483, 1991. Soluble truncated prostromelysin is purified by a modification of the monoclonal antibody affinity chromatography method described by Housley et al., J. Biol. Chem., 268, 4481-87, 1993.
This assay was originally described by Knight et al., FEBS Letters, 296, 263-266, 1992, for a related substrate. The assay is run continuously in a 3.0ml cuvette using a Perkin-Elmer LS 50 B Spectrofluorimeter at 25 ^∞C in a final volume of 2.0 mls. P218 substrate (10mM) in 100% DMSO is diluted to a final concentration of 2.0 micromolar (µM) into assay buffer: 50mM MES, pH 6.5 containing 150mM NaCl, 10mM CaCl2, 0.005% Brij-35, and 1%(v/v) DMSO. Test compounds(10mM) in DMSO are diluted in assay buffer at an initial concentration of 10 to 100 micromolar. These are diluted to a final concentration in the assay from 10 nM to 1 µM depending upon their potency previously determined in primary thiopeptilide assay described above. The reaction is initiated by the addition of recombinant stromelysin (MMP-3) at a final concentration of 1.0 nM. Upon peptide cleavage, the fluorescent MCA group is detected using an excitation wavelength of 328 nanometers and an emission wavelength of 393 nanometers. The assay is linear from 0.2 to 5nM MMP-3 concentration and percent inhibition is calculated as described above for the primary thiopeptilide assay and IC50 values are determined by a linear regression analysis of percent inhibition versus log drug concentration. The peptide sequence of the MCA substrate, hereinafter designated P218, is shown below: [formula]
This assay is run with a protocol analogous to that reported for MMP-3 inhibition using the synthetic peptide P218 and each of the three enzymes and measuring quenched fluorescence. This assay can be run with each invention compound with the three enzymes MMP-3, MMP-9 and MMP-2 in parallel as adapted for a 96-well microtitre plate using a Hamilton AT ® workstation.

[3] = biological target: T2, MMP-1 (Homo sapiens, UniProt P03956); assay: Automated MMP profiling assay (P218 quenched fluorescence), MMP-1; type: biochemical
T2 sequence (P03956 100-469): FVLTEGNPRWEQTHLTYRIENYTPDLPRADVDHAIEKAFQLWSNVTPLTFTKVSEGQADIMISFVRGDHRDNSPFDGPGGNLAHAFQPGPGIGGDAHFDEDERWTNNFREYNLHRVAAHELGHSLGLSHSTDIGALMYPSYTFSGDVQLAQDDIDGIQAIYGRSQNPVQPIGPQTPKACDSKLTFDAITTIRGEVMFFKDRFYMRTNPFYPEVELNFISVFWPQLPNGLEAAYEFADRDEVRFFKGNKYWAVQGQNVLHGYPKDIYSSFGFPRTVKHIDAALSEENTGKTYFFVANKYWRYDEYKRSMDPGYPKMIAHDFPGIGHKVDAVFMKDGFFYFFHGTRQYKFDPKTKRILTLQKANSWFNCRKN

[4] = biological target: MMP-9 (Homo sapiens, UniProt P14780); assay: Automated MMP profiling assay (P218 quenched fluorescence), MMP-9; type: biochemical
MMP-9, sequence (P14780 94-707): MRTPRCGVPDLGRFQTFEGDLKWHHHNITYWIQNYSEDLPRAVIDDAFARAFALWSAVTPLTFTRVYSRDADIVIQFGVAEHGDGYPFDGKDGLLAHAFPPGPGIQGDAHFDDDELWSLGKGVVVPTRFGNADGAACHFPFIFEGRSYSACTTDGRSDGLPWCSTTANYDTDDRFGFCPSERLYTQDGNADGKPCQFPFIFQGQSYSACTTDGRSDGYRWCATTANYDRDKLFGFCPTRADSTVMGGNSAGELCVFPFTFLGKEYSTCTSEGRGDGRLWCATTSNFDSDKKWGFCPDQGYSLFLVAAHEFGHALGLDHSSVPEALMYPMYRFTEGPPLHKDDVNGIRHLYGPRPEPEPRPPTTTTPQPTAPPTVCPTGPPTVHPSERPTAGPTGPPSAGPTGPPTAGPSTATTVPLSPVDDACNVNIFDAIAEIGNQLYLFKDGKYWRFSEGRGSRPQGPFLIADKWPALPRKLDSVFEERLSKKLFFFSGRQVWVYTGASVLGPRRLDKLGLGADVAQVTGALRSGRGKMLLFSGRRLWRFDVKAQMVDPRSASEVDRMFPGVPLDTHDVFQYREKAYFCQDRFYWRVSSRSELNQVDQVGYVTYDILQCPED
Experimental: MMP-9 is isolated modifying the previously described procedures of Hibbs et al (J. Biol. Chem., 260, 2493-2500, 1984) and Wilhelm et al (J. Biol. Chem., 264, 17213-17221, 1989). Briefly, polymorphonuclear leukocytes (PMN) preparations are isolated as described above from 3 or more units of freshly drawn whole blood. Cells are resuspended in phosphate buffered saline (PBS) containing 100 ng/ml phorbol myristate acetate (PMA) in the presence of […] di-isopropylfluorophospate (DFP), 1 µg/ml leupeptin and aprotinin, and 1 mg/ml catalase for 1 hr at 37°C. Supernatants are collected by centrifugation (300 x g) and the samples are frozen at-70°C. All chromatographic methods are performed at 4°C. Thawed samples are concentrated 5-fold using an Amicon chamber equipped with a YM-10 membrane. The concentrate is pressure dialyzed against 0.02M Tris-HCl, 0.1 M NaCl, 1 mM CaCl2 , 1 µM ZnCl2, 0.001% Brij-35, 0.02% sodium azide (NaN3), pH 7.5 and applied to DEAE ion exchange chromatography resin which is previously equilibrated with the same buffer at a flow rate of 0.4 ml/min. The column is extensively washed with the same buffer and gelatinase is eluted as 4 ml fractions from the column with 0.02M Tris-HCl, 0.5 M NaCI, 1 mM CaCl2, 1 µM ZnCl2, 0.001% Brij-35, 0.02% NaN3, pH 7.5. Gelatinase containing fractions are observed by gelatin zymography (see below), loaded onto a gelatin agarose affinity resin and washed with the same buffer. […] The protein content associated with material is determined with a micro-BCA assay (Pierce, Rockford, IL), lyophilized and reconstituted to a desired working concentration (100 µg/ml).
This assay was originally described by Knight et al., FEBS Letters, 296, 263-266, 1992, for a related substrate. […] Upon peptide cleavage, the fluorescent MCA group is detected using an excitation wavelength of 328 nanometers and an emission wavelength of 393 nanometers. […]
This assay is run with a protocol analogous to that reported for MMP-3 inhibition using the synthetic peptide P218 and each of the three enzymes and measuring quenched fluorescence. […]

[5] = tested on: Wistar rats; assay: Subdural hematoma (SDH) model in rats, quantification of edema formation; type: in vivo; conditions: rat-SDH- model, dose of 0.3 mg/kg i.v., edema assessed 24 hours after surgery
Experimental: Wistar rats, weighting 200-250 g were used. Anaesthesia was induced with i.p. injection of 1.2 ml Ketavet (120 mg Ketamin) and 0.8 ml Rompun™ (2% Xylancin) per animal. Body temperatures were maintained at 37°C by means of a rectal thermometer and a heating system.
A midline scalp incision was made and the saggital and coronal sutures identified. A burr hole 3 mm in diameter was drilled 2 mm to the left of the saggital suture and 1 mm posterior to the coronal suture. Using an operating microscope, the dura was incised and a blunt, pre-manufactured plastic tip (ca. 6.0 mm long) was carefully inserted 0.8 mm deep into the subdural space. Rapid-curing cyanoacrylate glue (Histoacryl) was used to seal the burr hole and secure the position of the plastic tip. […]
The edema formation was assessed 24 hours after surgery. […] The wet weight of both hemispheres was determined and after drying for 24 hours at 110°C the dry weights were determined. Based on the increase in tissue water content, tissue swelling (i.e., increase in volume) may be calculated employing the following (modified) equation: (ΔDW(%))/(DWε)× 100(%Swelling) [formula] where DW % is the difference in tissue dry weight between the normal and edematous brain, and DW the dry weight (%) of the edematous brain.

Structure (SMILES) | Ki ([1]; read-out: MMP-2 Ki) [nM] | Ki [2] [nM] | Ki [3] [nM] | Ki [4] [nM] | Ki [1] [nM] | Ki ([2]; read-out: MMP-3 Ki) [nM] | Ki ([3]; read-out: MMP-1 Ki) [nM] | Ki ([4]; read-out: MMP-9 Ki) [nM] | reduced the increase in tissue water content [5] [%]
O=C(CC(CCn1nnc2ccccc2c1=O)C(=O)O)c1ccc(-c2ccc(Cl)cc2)cc1 (racemic) [Example 6] | 1.2 | 6.2 | 2400 | 3 |  |  |  |  | 
CCOc1ccc(-c2ccc(C(=O)[C@H]3CC[C@@H](Sc4ccccc4)[C@@H]3C(=O)O)cc2)cc1 (racemic) [Example 1] |  |  |  |  | 0.46 | 20 | 3700 | 15 | 
CCOc1ccc(-c2ccc(C(=O)CC(CCN3C(=O)c4ccccc4C3=O)C(=O)O)cc2)cc1 (racemic) [Example 3] | 1.1 |  |  |  |  | 14 | 3400 | 0.78 | 
O=C(CC(CCn1nnc2ccccc2c1=O)C(=O)O)c1ccc(-c2ccc(Cl)cc2)cc1 (single isomer, unassigned; (+)) [Example 5, (+)-4-(4'-Chloro-biphenyl-4-yl)-4-oxo-2-[2-(4-oxo-4H-benzo[d][1,2,3]triazin-3-yl)-ethyl]-butyricacid] |  |  |  |  |  |  |  |  | 38
